SMILES strings stand for the structures. pKi: −log10 of the molar value.

As a reminder, the pKi is the negative decadic logarithm of the Ki, by convention in mol/L.

The target of one test is T1, human muscarinic M3 receptor (Homo sapiens, UniProt P20309).
T1 construct: expressed in transfected cells
T1 sequence (P20309 whole entry): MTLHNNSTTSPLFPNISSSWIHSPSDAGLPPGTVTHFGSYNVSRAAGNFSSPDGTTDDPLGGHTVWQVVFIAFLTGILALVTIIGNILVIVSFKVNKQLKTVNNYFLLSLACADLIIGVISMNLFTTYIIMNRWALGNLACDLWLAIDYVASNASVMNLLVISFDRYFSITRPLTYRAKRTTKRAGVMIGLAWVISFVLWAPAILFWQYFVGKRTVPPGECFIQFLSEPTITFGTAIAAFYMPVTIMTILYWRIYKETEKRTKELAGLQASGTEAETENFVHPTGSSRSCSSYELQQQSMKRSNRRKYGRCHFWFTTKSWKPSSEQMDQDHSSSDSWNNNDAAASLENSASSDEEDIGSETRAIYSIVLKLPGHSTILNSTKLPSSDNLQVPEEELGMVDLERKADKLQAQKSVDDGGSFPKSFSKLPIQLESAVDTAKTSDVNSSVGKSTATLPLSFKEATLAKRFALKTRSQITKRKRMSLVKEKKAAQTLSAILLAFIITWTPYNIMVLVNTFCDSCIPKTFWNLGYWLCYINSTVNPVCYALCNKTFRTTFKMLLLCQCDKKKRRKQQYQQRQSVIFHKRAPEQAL
Briefly: hM3 β-Lac potency assay (cell based β-lactamase).
Details: not given
The protocol: M3 potency was determined in CHO-K1 cells transfected with the NFAT-Betalactamase gene. CHO (Chinese Hamster Ovary) cells recombinantly expressing the human muscarinic M3 receptor were transfected with the NFAT_β-Lac_Zeo plasmid.
The cells were re-suspended at 2×10^5 cells/ml in growth medium (composition as described above). […] Inhibition curves were plotted and IC50 values generated using a 4-parameter sigmoid fit and converted to Ki values using the Cheng-Prusoff correction and the KD value for carbamyl choline in the assay.
`CC(C)(CCC(C(N)=O)(c1ccccc1)c1ccccc1)N1CC[C@H](Oc2ccc(Cl)cc2O)C1` [Example 36, 5-[(3S)-3-(4-Chloro-2-Hydroxy-phenoxy)-pyrrolidin-1-yl]-5-methyl-2,2-diphenyl-hexanoic acid amide]: the pKi is 7.75.

Staying with this test, now noted: CHO cells expressing human M3 receptor, NFAT β-lactamase reporter; […]; IC50 converted to Ki by Cheng-Prusoff; read-out: Cell based β-lactamase M3 Ki.
In the case of `CC(C)(CCC(C#N)(c1ccccc1)c1ccccc1)N1CC(OCc2ccc(O)cc2)C1` [Example 151, 5-{3-[(4-Hydroxybenzyl)oxy]azetidin-1-yl}-5-methyl-2,2-diphenylhexanenitrile], the pKi was 9.72.

Staying with this test, now noted: CHO cells expressing human M3 receptor, NFAT β-lactamase reporter; inhibition of 80 nM carbamyl choline signal, 4 h; IC50 converted to Ki by Cheng-Prusoff; read-out: Cell based β-lactamase M3 Ki.
Regarding `CC(C)(CCC(C(N)=O)(c1ccccc1)c1ccccc1)N1CC[C@H](Oc2ccc(F)c(O)c2)C1` [Example 52, 5-[(3S)-3-(4-Fluoro-3-Hydroxy-phenoxy)-pyrrolidin-1-yl]-5-methyl-2,2-diphenyl-hexanoic acid amide], the pKi is 8.67. Regarding `NC(=O)C(CCC1(N2CC(Oc3ccc(Cl)c(O)c3)C2)CCCC1)(c1ccccc1)c1ccccc1` [Example 139, 4-{1-[3-(4-Chloro-3-hydroxy-phenoxy)-azetidin-1-yl]-cyclopentyl}-2,2-diphenyl-butyramide], the pKi was 8.27.

For `CC(C)(CCC(C(N)=O)(c1ccccc1)c1ccccc1)N1CC[C@@H](Oc2ccc(Cl)c(O)c2)C1` [Example 82, 5-[(3R)-3-(3-hydroxy-4-chloro-phenoxy)-pyrrolidin-1-yl]-5-methyl-2,2-diphenylhexanamide], the pKi is 8.10.

In the case of `CC(C)(CCC(C(N)=O)(c1ccccc1)c1ccccc1)N1CC[C@H](Oc2cc(O)ccc2Cl)C1` [Example 40, 5-[(3S)-3-(2-Chloro-5-Hydroxy-phenoxy)-pyrrolidin-1-yl]-5-methyl-2,2-diphenyl-hexanoic acid amide], the negative logarithm of the Ki (pKi) is 8.22. For the compound `COc1cccc(OC2CN(C(C)(C)CCC(C(N)=O)(c3ccccc3)c3ccccc3)C2)c1` [Example 100, 5-[3-(3-Methoxyphenoxy)azetidin-1-yl]-5-methyl-2,2-diphenylhexanamide], the pKi was 9.37. Consider `CC(C)(CCC(C(N)=O)(c1ccccc1)c1ccccc1)N1CC[C@@H](Oc2ccc(C(F)(F)F)cc2)C1` [Example 26, 5-[(3R)-3-(4-trifluoromethyl-phenoxy)pyrrolidin-1-yl]-5-methyl-2,2-diphenylhexanamide], for which the pKi was 8.78. With `CC(C)(CCC(C(N)=O)(c1ccccc1)c1ccccc1)N1CC(OCc2ccc(O)c(Cl)c2)C1` [Example 146, 5-[3-(3-Chloro-4-hydroxy-benzyloxy)-azetidin-1-yl]-5-methyl-2,2-diphenyl-hexanoic acid amide], the pKi is 9.61. The same measure, in the same setting: the value for `CC(C)(CCC(C(N)=O)(c1ccccc1)c1ccccc1)N1CC[C@H](Oc2cccc(-c3cccc(O)c3)c2)C1` [Example 19, 5-{(3S)-3-[(3′-Hydroxybiphenyl-3-yl)oxy]pyrrolidin-1-yl}-5-methyl-2,2-diphenylhexanamide] was 8.25; that for `COc1cccc(O[C@H]2CCN(C(C)(C)CCC(C(N)=O)(c3ccccc3)c3ccccc3)C2)c1Cl` [Example 37, 5-[(3S)-3-(2-Chloro-3-Methoxy-phenoxy)-pyrrolidin-1-yl]-5-methyl-2,2-diphenyl-hexanoic acid amide] was 8.30. Still for that read-out and setting: the value for `CC(C)(CCC(C(N)=O)(c1ccccc1)c1ccccc1)N1CCC(Oc2ccccc2)CC1` [Example 90, 5-Methyl-5-(4-Phenoxypiperidin-1-yl)-2,2-diphenylhexanamide] was 9.57; that for `CC(C)(CCC(C(N)=O)(c1ccccc1)c1ccccc1)N1CC(Oc2ccccc2)C1` [Example 104, 5-Methyl-5-(3-phenoxyazetidin-1-yl)-2,2-diphenylhexanamide] was 10.31; that for `CC(C)(CCC(C(N)=O)(c1ccccc1)c1ccccc1)N1CC[C@H](OCc2cccc(-c3ccccc3)c2)C1` [Example 66, 5-[(3S)-3-(Biphenyl-3-ylmethoxy)pyrrolidin-1-yl]-5-methyl-2,2-diphenylhexanamide] was 7.34. For `CC(C)(CCC(C(N)=O)(c1ccccc1)c1ccccc1)N1CC[C@@H](Oc2ccc(C#N)c(O)c2)C1` [Example 83, 5-[(3R)-3-(3-hydroxy-4-cyano-phenoxy)-pyrrolidin-1-yl]-5-methyl-2,2-diphenylhexanamide], the pKi was 7.52. On to `COc1ccc(C#N)c(O[C@H]2CCN(C(C)(C)CCC(C(N)=O)(c3ccccc3)c3ccccc3)C2)c1` [Example 69, 5-[(3S)-3-(2-Cyano-5-methoxy-phenoxy)-pyrrolidin-1-yl]-5-methyl-2,2-diphenylhexanamide], for which the pKi is 6.95. As for `CC(C)(CCC(C(N)=O)(c1ccccc1)c1ccccc1)N1CC[C@@H](Oc2cc(O)cc(C(F)(F)F)c2)C1` [Example 49, 5-[(3R)-3-(3-Hydroxy-5-trifluoromethyl-phenoxy)-pyrrolidin-1-yl]-5-methyl-2,2-diphenyl-hexanoic acid amide], the pKi is 7.31.

For `CC(C)(CCC(C(N)=O)(c1ccccc1)c1ccccc1)N1CCC(OCc2cccc(-c3cccc(O)c3)c2)CC1` [Example 98, 5-{4-[(3′-hydroxybiphenyl-3-yl)methoxy]piperidin-1-yl}-5-methyl-2,2-diphenylhexanamide], the pKi was 6.86. For `COc1cc(OC2CN(C(C)(C)CCC(C(N)=O)(c3ccccc3)c3ccccc3)C2)ccc1Cl` [Example 113, 5-[3-(4-Chloro-3-methoxy-phenoxy)-azetidin-1-yl]-5-methyl-2,2-diphenylhexanamide], the negative-log Ki (pKi) is 8.14.

Regarding `CC(C)(CCC(C(N)=O)(c1ccccc1)c1ccccc1)N1CC(Oc2ccc(Cl)c(O)c2)C1` [Example 114, 5-[3-(4-Chloro-3-hydroxy-phenoxy)-azetidin-1-yl]-5-methyl-2,2-diphenylhexanamide], the pKi was 8.71. Still for that read-out and setting: the value for `CC(C)(CCC(C(N)=O)(c1ccccc1)c1ccccc1)N1CC(Oc2cc(O)ccc2Cl)C1` [Example 118, 5-[3-(2-Chloro-5-hydroxy-phenoxy)-azetidin-1-yl]-5-methyl-2,2-diphenyl-hexanoic acid amide] was 7.39.

In the case of `CC(C)(CCC(C(N)=O)(c1ccccc1)c1ccccc1)N1CCC(OCc2ccccc2)CC1` [Example 92, 5-[4-(Benzyloxy)piperidin-1-yl]-5-methyl-2,2-diphenylhexanamide], the pKi was 8.67. On the same count and under the same terms, the figure for `CC(C)(CCC(C(N)=O)(c1ccccc1)c1ccccc1)N1CC(OCc2c(Cl)ccc(O)c2Cl)C1` [Example 128, 5-[3-(2,6-Dichloro-3-hydroxy-benzyloxy)-azetidin-1-yl]-5-methyl-2,2-diphenyl-hexanoic acid amide] is 8.09; for `CC(C)(CCC(C(N)=O)(c1ccccc1)c1ccccc1)N1CC[C@H](Oc2ccc(Cl)cc2)C1` [Example 16, 5-[(3S)-3-(4-Chlorophenoxy)pyrrolidin-1-yl]-5-methyl-2,2-diphenylhexanamide] it is 8.73; for `COc1cc(Cl)ccc1O[C@H]1CCN(C(C)(C)CCC(C(N)=O)(c2ccccc2)c2ccccc2)C1` [Example 35, 5-[(3S)-3-(4-Chloro-2-Methoxy-phenoxy)-pyrrolidin-1-yl]-5-methyl-2,2-diphenyl-hexanoic acid amide] it is 8.14. With `CC(C)(CCC(C(N)=O)(c1ccccc1)c1ccccc1)N1CC(OCc2cccc(O)c2Cl)C1` [Example 148, 5-[3-(2-Chloro-3-hydroxy-benzyloxy)-azetidin-1-yl]-5-methyl-2,2-diphenyl-hexanoic acid amide], the pKi was 9.45.

The record behind these values is patent US8268881B2, “Carboxamide derivatives as muscarinic receptor antagonists” (Pfizer Limited, priority 2005, dated 2012).
